Consider 1 compound from patent US8202902B2, “Bivalent SMAC mimetics and the uses thereof” (The Regents of the University of Michigan, priority 2006, dated 2012).

Series [1] has as its system MDA-MB-231 and SK-OV-3 cancer cell lines. In words: Role of caspase-8, -3 and -9 (siRNA, caspase inhibitors) in activity of Smac mimetics. The settings on record: siRNA. Format: cell-based. The text has this:
To examine the role of caspase-8, -3 and -9 in apoptosis induction by Smac mimetics, siRNA was employed against these caspases in MDA-MB-231 and SK-OV-3 cancer cell lines.

The subject of series [2] is cIAP-1 in cancer cell lines. The series can be described thus: Induction of cIAP-1 degradation in cancer cells. Format: cell-based.
The subject of series [3] is MDA-MB-231 xenograft tumor tissues. In words: cIAP-1 degradation and apoptosis in MDA-MB-231 xenograft tumor and normal tissues. Format: in vivo, mice. The method, then: To further investigate its therapeutic potential and in vivo mechanism, SM-164 was evaluated in the MDA-MB-231 xenograft model in mice. […] A single dose of SM-164 at 5 mg/kg decreased the level of cIAP-1 protein within 1 h and the effect lasted for at least 24 h. […] Apoptosis was examined by TUNEL staining using the In situ Cell Death Detection Kit (Roche Applied Science). To determine apoptosis in xenograft tumor and normal mouse tissues, severe combined immunodeficient (SCID) mice bearing established tumor were treated with Smac mimetics. Tissues were harvested and TUNEL staining was performed on formaldehyde-fixed, paraffin-embedded tissues. Paraffin-embedded tissue sections, mounted on slides, were deparaffinized and rehydrated by washing in a descending series of alcohol solutions (100%, 95%, 70% and 50%) and PBS. Antigen retrieval was performed by the microwave oven method using a commercially available antigen retrieval buffer (Covance Research Products, Inc.). Tissue sections were blocked with 3% BSA and 20% normal bovine serum in PBS for 30 min at room temperature (RT) to block unspecific binding sites. Tissue sections were incubated in 100 μl of TUNEL mixture [TUNEL mixture=10 μl of Enzyme solution (Vial 1)+90 μl of Label solution (Vial 2)] for 60 min at RT. Tissue section incubated in 90 μl of Label solution (Vial 2), instead of TUNEL mixture was used as negative control. Tissue section preincubated in DNase I recombination in 3000 U/ml of PBS, 1 mg/ml BSA for 10 min RT, followed by incubation with TUNEL mixture was used as positive control. Tissues slides were rinsed with PBS 5 min ×3, and stained with Propidium iodide and mounted and observed under a fluorescent microscope. […] The strong apoptosis induction by SM-164 was still evident at the 24 h time point. […] In contrast to the strong apoptosis induction and damage in xenograft tumor tissues, SM-164 has no effect on all the normal mouse tissues examined, including highly proliferative tissues such as the small intestine, stomach, liver and spleen (FIGS. 47-49).
Using the MDA-MB-231 xenograft model, SM-122 was also examined for its ability to induce cIAP-1 degradation and apoptosis in tumor tissues in vivo.

For series [4], the system named is sensitive cancer cell lines (MDA-MB-231, MALME-3M, SK-OV-3). In words: XIAP knockdown by siRNA with exogenous TNFα, cell death. Format: cell-based. The method, then: To investigate the role of XIAP in apoptosis induction by Smac mimetics, XIAP was knocked down in sensitive cancer cell lines. Because XIAP knockdown attenuated the production and secretion of TNFα (FIG. 34) (Gaither et al., Cancer Res. 67:11493 (2007)), exogenous TNFα was added in these XIAP knockdown experiments. […] For example, while SM-122 at 100 nM in combination with TNFα killed 25% of the MDA-MB-231 cells when control siRNA was used, the same combination killed 75% of the cells when XIAP was knocked down.
This is consistent with binding and functional data that indicates SM-164 binds to XIAP with a high affinity and is a potent antagonist of XIAP.

The subject of series [5] is HCT116 XIAP^+/+ and XIAP^−/− isogenic cell lines. In words: HCT116 XIAP+/+ and XIAP-/- isogenic cell lines, Smac mimetics with TNFα. Format: cell-based. The source says:
To complement the siRNA experiments and to more precisely define the role of XIAP in TNFα-dependent apoptosis induction by Smac mimetics, HCT116 XIAP^+/+ and XIAP^−/− isogenic cell lines were used in further studies (Cummins et al., Cancer Res. 64:3006 (2004)). Since both these cell lines were resistant to SM-122 and SM-164 as a single agent (FIG. 41), the role of XIAP using Smac mimetics in combination with TNFα was investigated.
The combination of SM-164 at these concentrations with TNFα was effective in induction of caspase-3 activation, PARP cleavage and in inhibition of cell growth in the XIAP^+/+ cell line (FIG. 42). Although knockout of XIAP sensitized the HCT116 cells to SM-164 in combination with TNFα, the effect was much less than that observed with the combination of SM-122 with TNFα (FIG. 42).

The test system of another series is SK-OV-3. In words: Cell growth inhibition, WST assay, SK-OV-3. Format: cell-based. The settings on record: Homo sapiens. As for the experimental part:
(§1) Cells were seeded in 96-well flat bottom cell culture plates at a density of 3000 cells/well with a tested compound and incubated at 37° C. in an atmosphere of 95% air and 5% CO2 for 4 days. The rate of cell growth inhibition after treatment with different concentrations of the compound was determined using a WST-8 kit (2-(2-methoxy-4-nitrophenyl)-3-(4-nitrophenyl)-5-(2, 4 disulfophenyl)-2H-tetrazolium monosodium salt; Dojindo Molecular Technologies, Inc., Gaithersburg, Md.). WST-8 was added at a final concentration of 10% to each well, and then the plates were incubated at 37° C. for 2-3 hrs. The absorbance of the samples was measured at 450 nm using a ULTRA Tecan Reader (Molecular Device).

In series [6] the test system is resistant cancer cell lines (MDA-MB-453 breast, DU-145 prostate, MDA-MB-435 melanoma). The series can be described thus: Secreted TNFα in cell culture medium (ELISA), resistant lines. Format: cell-based. As for the experimental part:
To explore whether the resistance of cancer cells to Smac mimetics is due to the lack of secreted TNFα, the levels of secreted TNFα were examined. Secreted TNFα concentrations were determined in 200 μl of cell culture medium using the Quantikine HS Human TNFα ELISA kit (R&D Systems). The assay was performed according to the manufacturer's instructions.

In series [7] the test system is MDA-MB-231, SK-OV-3 and MALME-3M cell lines. The series can be described thus: Western blot analysis of caspase processing and PARP cleavage. Format: cell-based. The method, then:
Treatment with SM-164 at 1 nM for 12 h induced 32%, 33%, and 37% of the MDA-MB-231, SK-OV-3 and MALME-3M cells to undergo apoptosis, respectively (FIGS. 12-14).
A general note: A western blot detects proteins with antibodies after separation by electrophoresis.

Series [8] has as its system MDA-MB-231 (2LMP) human breast cancer cells. In words: Cell growth inhibition by cisplatin or mitoxantrone with SH-164. Format: cell-based. The settings on record: 100 nM. The method, then: as §1

For orientation: IC50 means the concentration that gives 50% inhibition. A high value points to weaker potency.

Take `CN[C@@H](C)C(=O)N[C@H]1CCCC[C@H]2CC[C@@H](C(=O)N[C@@H](c3ccccc3)c3cn(CCCCc4ccc(CCCCn5cc([C@@H](NC(=O)[C@@H]6CC[C@@H]7CCCC[C@H](NC(=O)[C@H](C)NC)C(=O)N76)c6ccccc6)nn5)cc4)nn3)N2C1=O` [SH-164]: in [1], the “effect of knockdown of caspase-3 and -8 on activity” value was “markedly attenuated”. Also, the “effect of knockdown of caspase-9 on activity” value in series [1] is “minimal effect”. The cIAP-1 level entry in series [2] (1 nM for 60 min, sensitive cancer cell lines) is “reduced cIAP-1 markedly”. In addition, the cIAP-1 degradation result was “rapid cIAP-1 degradation” in series [2] (100 nM, SK-OV-3 cell line (FIG. 28)); “rapid cIAP-1 degradation” in [2] (resistant cancer cell lines); “effectively induced cIAP-1 degradation” in series [5] (10-100 nM, both cell lines). For the same compound, the “cIAP-1 level / degradation” value in series [2] (10-100 nM, sensitive cancer cell lines) is on record as “undetectable levels”. The “levels of XIAP protein” value in series [2] (MDA-MB-231 and SK-OV-3, 12-24 h time points) is recorded as “reduced”. Also, the “activation of caspase-8, -9, and -3 and cleavage of PARP” value in series [3] (3 h time point, persisted for 24 h) is reported as “Robust activation”. Besides, in series [3] (6 h time point), the “TUNEL positive tumor cells” value is given as “more than 50%”. In addition, the “H&E staining of tumor tissues” value in series [3] (mouse, in vivo) is given as “profound damage to tumor tissues”. Further, in series [3] (single dose 5 mg/kg), the “duration of cIAP-1 decrease” value is given as “at least 24 h”. In series [3] (single dose 5 mg/kg), the “time to decrease of cIAP-1 protein level in tumor” value is ≤ 1 h. In addition, the “effect on normal mouse tissues” value in series [3] (small intestine, stomach, liver, spleen etc.) is “no effect”. Further, the cell death induction entry in series [4] (3 and 10 nM, with or without TNFα) is recorded as “effectively induced cell death”. Also, in [4] (presence of exogenous TNFα), the “sensitization by knockdown of XIAP” value is given as “only modestly sensitized”. The “caspase-3 activation, PARP cleavage and cell growth inhibition” value in [5] (10-100 nM with TNFα, XIAP+/+ cell line) is listed as “effective”. Also, the “sensitivity as a single agent” value in [5] (both cell lines) is listed as “resistant”. For the same compound, in the series on SK-OV-3, the IC50 was < 10 nM. The “induction of TNFα” value in series [6] was “failed to induce detectable levels of TNFα”. In addition, the “induction of cell death, caspase processing and PARP cleavage, comparison” value in series [7] (SM-164 at 1 nM) was “as effective as SM-122 at 1,000 nM”. Further, in series [7] (concentration as low as 1 nM), the “levels of pro-caspase-3, -8 and -9 (cleaved PARP increased)” value is “markedly decreased”. Besides, the “sensitization to growth inhibition by cisplatin and mitoxantrone” value in series [8] was “sensitized the cells to growth inhibition by both agents”.
